Experimental data: patent US10660911B2, “Proton-motive force stimulation to potentiate aminoglycoside antibiotics against persistent bacteria” (TRUSTEES OF BOSTON UNIVERSITY, priority 2011, dated 2020)
Entries after “also recorded” stand apart in the source; their conditions may differ.

Key:
E. coli persisters = assay: E. coli persister assay (survival by c.f.u. per ml); type: cell-based, Escherichia coli (K12 EMG2); details: for killing of E. coli persisters by antibiotic without metabolite: antibiotic alone, no carbon source; for potentiation of gentamicin against E. coli persisters by metabolite / reduction of persister viability (killing by gentamicin induced by metabolite): metabolite plus 10 μg/mL gentamicin; for potentiation of gentamicin against E. coli persisters by metabolite / reduction of persister viability (killing by gentamicin induced by metabolite) / potentiation of gentamicin against ΔndhΔnuoI strain persisters: 2 h; for reduction of persister viability (killing by gentamicin induced by metabolite): M9 minimal media; for potentiation of gentamicin against ΔndhΔnuoI strain persisters: ΔndhΔnuoI E. coli, gentamicin plus metabolite; for killing of E. coli persisters by antibiotic in the presence of mannitol: antibiotic plus 10 mM mannitol
Protocol: (§1) For E. coli (K12 EMG2 strain) persister assays, as described herein, samples were grown to stationary phase in Luria-bertani (LB) broth. Cultures were then treated for 4 hours with 5 μg/mL ofloxacin. […] Samples were then washed with 10 mL 1× filtered PBS and re-suspended in M9 minimal media. Metabolites (Glucose, mannitol, fructose, and pyruvate) and aminoglycoside antibiotics (10 μg/mL gentamicin, 50 μg/mL streptomycin, and 30 μg/mL kanamycin) were added, and samples were incubated at 37° C., 300 RPM, and 80% humidity. Resuspension of samples in defined minimal media allowed precise and specific testing of the effect of different metabolites on persister viability, without the possible confounding factors that a more complex media would present. For S. aureus persister (ATCC 25923 strain) experiments, cells were grown at 37° C. and 300 RPM in LB broth to an OD600 of 0.3. Cells were then diluted 1:1000 in 25 mL LB and grown for 16 hours at 37° C. and 300 RPM in 250 mL flasks. Cultures were treated with carbon source and antibiotic. Previous work has shown that, approximately all, stationary phase S. aureus cells are persistent.
At specified time points, 10 μL aliquots of samples were removed, serially diluted, and spot-plated onto LB agar plates to determine colony forming units/mL (CFU/mL). Only dilutions that yielded between 10-100 colonies were counted. Survival was determined by dividing a replicate's CFU/mL at each time point by the initial CFU/mL for the replicate.
Given the dormancy of bacterial persisters and the known energy requirement for aminoglycoside activity^16, we tested whether metabolic stimulation could potentiate the efficacy of aminoglycosides against bacterial persisters. To test this, we screened metabolites for their ability to potentiate aminoglycosides against E. coli persisters. We selected carbon sources to maximize coverage of glycolysis, the pentose-phosphate pathway (PPP) and the Entner-Doudoroff pathway (EDP) (FIGS. 1A, 1B). Bacterial persisters were isolated (as described under “Methods”), re-suspended in minimal media supplemented with individual metabolites and then treated for 2 hours with the aminoglycoside gentamicin.
The following concentrations of carbon sources were used in this study: 10 mM glucose, 10 mM mannitol, 10 mM fructose, 20 mM glycerol, 30 mM glycolate, 10 mM galactarate, 20 mM pyruvate, 10 mM gluconate, 12 mM arabinose and 12 mM ribose. 10 mM acetate was used as a supplement and 30 mM acetate was used as a potentiating metabolite in control experiments. Carbon sources were purchased from Sigma or Fisher. In E. coli persister assays, samples were re-suspended in M9 minimal media salts plus a carbon source. In all experiments using CCCP, samples were pre-treated for 5 min with the proton ionophore before antibiotic addition.
For E. coli persister assays, samples were grown to stationary phase as described above. Cultures were then treated for 4 h with 5 μg ml^−1 ofloxacin in the above-stated growth conditions. […] Samples were then washed with 10 ml of 1× filtered PBS and re-suspended in M9 minimal media. Carbon sources and antibiotics were added and samples were incubated at 37° C. 300 r.p.m. and 80% humidity. Re-suspension of samples in defined minimal media allowed us to test the effects of different carbon sources on persister viability precisely and specifically, without the possible confounding factors that a more complex medium would present. For S. aureus persister experiments, cells were grown at 37° C. and 300 r.p.m. in LB broth to an OD600 of 0.3. Cells were then diluted 1:1,000 in 25 ml LB and grown for 16 h at 37° C. and 300 r.p.m. in 250 ml flasks before treatment with a carbon source and antibiotic. Previous work has shown that almost all stationary-phase S. aureus cells are persistent^25.
At specified time points, 10-μl aliquots of samples were removed, serially diluted and spot-plated onto LB agar plates to determine colony-forming units per ml (c.f.u. ml^−1). […]

S. aureus persisters = assay: S. aureus persister assay; type: cell-based, Staphylococcus aureus (ATCC 25923)
Protocol: as §1, with “Previous work has shown that, approximately all, stationary phase S. aureus cells are persistent.” left out
At specified time points, 10-μl aliquots of samples were removed, serially diluted and spot-plated onto LB agar plates to determine colony-forming units per ml (c.f.u. ml^−1). Only dilutions that yielded 10-100 colonies were counted Survival was determined by dividing the c.f.u. ml^−1 of a sample at each time point by the initial c.f.u. ml^−1 for that sample.

[1] = system: stationary-phase E. coli cells; type: cell-based, Escherichia coli
Protocol: Given that aminoglycoside uptake is energy-dependent^16, we investigated whether the metabolic stimuli screened here could increase aminoglycoside uptake. We measured uptake by fluorescently labelling gentamicin with Texas red and analyzing cells by fluorescence-activated cell sorting (FACS). Cells were pre-incubated with metabolites for 30 min before a 5-min treatment with gentamicin-Texas red (FIG. 1D and FIG. 14).
Gentamicin-Texas red was made as previously described^27. At 4° C., 1 mg of Texas red (Invitrogen) was dissolved in 50 μl of high-quality anhydrous N,N-dimethylformamide. The dissolved Texas red was added slowly to 2.3 ml of 10 mg ml^−1 gentamicin solution in 100 mM K2CO3 at 4° C.
Uptake of gentamicin-Texas red induced by carbon sources in stationary-phase cells was determined by adding concentrated carbon sources (see section on media and growth conditions for concentrations) to stationary-phase cultures and incubating them for 30 min at 37° C., 300 r.p.m. and 80% humidity. Concentrated gentamicin-Texas red was then added to a final concentration of 10 μg ml^−1 and samples were incubated for 5 min. 100 μl of each sample was then washed with 1 ml of PBS and re-suspended in 1 ml of PBS. […] Samples were analysed on a BD FACS Aria II flow cytometer with the following settings: mCherry voltage, 650 V; FSC threshold, 1,000; recorded events, 100,000; gated-out mCherry events. <30.

[2] = system: uropathogenic E. coli biofilms; assay: Mouse chronic urinary tract infection assay; type: in vivo, mice (BALB/c); details: i.v. twice daily for 3 days; gentamicin 1 mg/kg, mannitol 1.5 g/kg
Protocol: Female Charles River Balb/C mice (weighing 22-26 g) received surgical implantation in the urinary tract of 6 mm PESO catheter tubing that had been incubated in cultures of uropathogenic E. coli for 24 hours to form biofilms. Forty-eight hours after surgery, mice received no treatment or twice-daily, intravenous treatment with gentamicin (1 mg/Kg) or mannitol (1.5 g/Kg) and gentamicin (1 mg/Kg) for three days. Seven to eight mice were included in each group. Twenty-four hours after the last treatment, catheter tubing was extracted to determine biofilm viability and kidneys were removed to determine bacterial load.
To determine the clinical relevance of metabolic potentiation of aminoglycosides in vivo, we tested the ability of gentamicin in combination with mannitol to treat chronic, biofilm-associated infection in a mouse model. Catheters colonized with uropathogenic E. coli biofilms were implanted in the urinary tracts of mice (FIG. 3D). Two days after surgery, mice received either no treatment or intravenous treatment with gentamicin or gentamicin and mannitol for 3 days, after which the catheters were removed and biofilm viability was determined. Gentamicin alone had no effect, whereas gentamicin in combination with mannitol reduced the viability of the catheter biofilms by nearly 1.5 orders of magnitude (FIG. 3D). […]

[H]/N=C(/N)N[C@H]1[C@H](O)[C@@H](O)[C@H](O[C@@H]2O[C@@H](C)[C@](O)(C=O)[C@H]2O[C@@H]2O[C@@H](CO)[C@H](O)[C@@H](O)[C@@H]2NC)[C@@H](N/C(N)=N\[H])[C@@H]1O [streptomycin]
killing of E. coli persisters by antibiotic without metabolite (E. coli persisters): no appreciable killing | aminoglycoside activity against E. coli persisters with upper-glycolytic metabolites (E. coli persisters; plus glucose, mannitol or fructose, 30 μg/mL kanamycin, 50 μg/mL streptomycin): greatly enabled

O=C(O)[C@H](O)[C@@H](O)[C@H](O)[C@H](O)CO [gluconate]
potentiation of gentamicin against E. coli persisters by metabolite (E. coli persisters): low potentiation

OC[C@@H](O)[C@@H](O)[C@H](O)[C@H](O)CO [mannitol]
potentiation of gentamicin against S. aureus persisters by metabolite (S. aureus persisters): little potentiation | reduction of persister viability (killing by gentamicin induced by metabolite) (E. coli persisters): three orders of magnitude | potentiation of gentamicin against ΔndhΔnuoI strain persisters (E. coli persisters): not potentiated

CC1(C)S[C@@H]2[C@H](NC(=O)[C@H](N)c3ccccc3)C(=O)N2[C@H]1C(=O)O [ampicillin]
killing of E. coli persisters by antibiotic without metabolite (E. coli persisters): none of the bactericidal antibiotics used in this study (ofloxacin, ampicillin, and gentamicin) caused killing of cells; also recorded: neither the β-lactam ampicillin nor the quinolone ofloxacin showed appreciable killing | killing of E. coli persisters by antibiotic in the presence of mannitol (E. coli persisters): neither the β-lactam ampicillin nor the quinolone ofloxacin showed appreciable killing

O=C(CO)[C@@H](O)[C@H](O)[C@H](O)CO [fructose]
PMF dependence of fructose potentiation in S. aureus (S. aureus persisters; gentamicin and fructose, with or without CCCP, 4 h): requires PMF generation; also recorded: PMF-dependent killing | reduction of persister viability (killing by gentamicin induced by metabolite) (E. coli persisters): three orders of magnitude | potentiation of gentamicin against ΔndhΔnuoI strain persisters (E. coli persisters): not potentiated

O=C(O)CO [glycolate]
uptake of Texas Red probe ([1]; 30 mM glycolate, stationary phase E. coli): affects the uptake of Texas Red probe

O=C[C@@H](O)[C@H](O)[C@H](O)CO [arabinose]
potentiation of gentamicin against E. coli persisters by metabolite (E. coli persisters): low potentiation

O=C[C@H](O)[C@H](O)[C@H](O)CO [ribose]
potentiation of gentamicin against E. coli persisters by metabolite (E. coli persisters): low potentiation

N#CC(C#N)=NNc1cccc(Cl)c1 [CCCP, carbonyl cyanide m-chlorophenyl hydrazone]
effect of CCCP on metabolite-induced gentamicin-Texas red uptake ([1]; 20 μM CCCP, 10 μg/mL Gent-TR, 30 min on carbon source): suppressed the metabolite-induced uptake of aminoglycoside | effect of CCCP on metabolite potentiation of gentamicin (E. coli persisters; 20 μM CCCP pre-incubation, 10 μg/mL gentamicin plus carbon sources): abolish aminoglycoside potentiation by all of the carbon sources; also recorded: abolishes metabolite-enabled potentiation

gentamicin
reduction of viability of catheter biofilms [2]: no effect | killing of E. coli persisters by antibiotic without metabolite (E. coli persisters): none of the bactericidal antibiotics used in this study (ofloxacin, ampicillin, and gentamicin) caused killing of cells; also recorded: No killing | killing of E. coli persisters by antibiotic in the presence of mannitol (E. coli persisters): rapidly eliminated
